Results reported in patent US20170305893A1 (Thomas Helledays Stiftelse for Medicinsk Forskning, priority 2014, published 2017).
Read-outs that look alike come from different tables or passages of the source.

Experiments:
human cancer cell lines = settings: three types of human cancer cell lines; cited from earlier work
DCTPP1 = target: T1, DCTPP1 (Homo sapiens, UniProt Q9H773); assay: DCTPP1 inhibition assay (malachite green); type: biochemical; settings: 35 nM DCTPP1, 35 μM dCTP, 20 minutes at 22° C.
T1 sequence (Q9H773 1-170): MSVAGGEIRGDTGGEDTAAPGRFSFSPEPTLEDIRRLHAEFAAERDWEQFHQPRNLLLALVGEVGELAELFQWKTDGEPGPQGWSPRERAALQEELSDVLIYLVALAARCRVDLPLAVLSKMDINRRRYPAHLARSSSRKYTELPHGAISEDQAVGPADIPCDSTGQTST
Experimental: DCTPP1 catalyzes the hydrolysis of dCTP to dCMP and PPi. By coupling the reaction to pyrophosphatase added in excess PPi is converted to Pi that can be detected by using the malachite green assay reagent. […] DCTPP1 diluted in assay buffer (100 mM Tris-acetate, 100 mM KCl, 10 mM magnesium acetate, 1 mM DTT and 0.005% Tween 20) fortified with E. coli pyrophosphatase (0.2 U/mL) is added to a final concentration of 35 nM. dCTP diluted in assay buffer is added to a final concentration of 35 μM. The reaction mixture is incubated with shaking for 20 minutes at 22° C. To 100 μl reaction mixture is added […] Malachite green assay reagent (0.095% Malachite green in 17% H2SO4, 1.5% Ammonium molybdate, 0.17% Tween 20) added followed by incubation with shaking for 15 minutes at 22° C. The absorbance of the assay plate is read at 630 nm using a SpectraMax plate reader (Molecular Devices).

| Compound | IC50 (DCTPP1; read-out: IC50 (nM), class) | other results |
| --- | --- | --- |
| COc1cc(C(=O)n2ccc3c([N+](=O)[O-])c(OC)ccc32)cc(OC)c1OC [(5-methoxy-4-nitroindol-1-yl)(3,4,5-trimethoxy-phenyl)methanone] | – | antiproliferative activity (human cancer cell lines): does not show any activity |
| Cc1nc2c([N+](=O)[O-])c(Cl)c(Cl)cc2n1Cc1ccc(B(O)O)cc1 [Compound 2.2.44, (4-((5,6-dichloro-2-methyl-4-nitro-1H-benzo[d]imidazol-1-yl)methyl)phenyl)boronic acid] | – | IC50 (DCTPP1; read-out: IC50): 47 nM |
| Cc1nc2c([N+](=O)[O-])c(Cl)c(Cl)cc2n1Cc1ccc(B2OC(C)(C)C(C)(C)O2)cc1 [Compound 2.2.49, 5,6-dichloro-2-methyl-4-nitro-1-(4-(4,4,5,5-tetramethyl-1,3,2-dioxaborolan-2-yl)benzyl)-1H-benzo[d]imidazole] | – | IC50 (DCTPP1; read-out: IC50): 30 nM |
| Cc1nc2c([N+](=O)[O-])c(Cl)c(Cl)cc2n1Cc1ccc(B2OC(=O)CN(C)CC(=O)O2)cc1 [Compound 2.2.50, 2-(4-((5,6-dichloro-2-methyl-4-nitro-1H-benzo[d]imidazol-1-yl)methyl)phenyl)-6-methyl-1,3,6,2-dioxazaborocane-4,8-dione] | – | IC50 (DCTPP1; read-out: IC50): 44 nM |
| Cc1cc2c(nc(C)n2Cc2cc3c(cc2Cl)OCO3)c([N+](=O)[O-])c1C [Compound 2.2.53, 1-((6-chlorobenzo[d][1,3]dioxol-5-yl)methyl)-2,5,6-trimethyl-4-nitro-1H-benzo[d]imidazole] | ≥ 1000 nM | – |
| COc1ccc(Cn2c(C(F)(F)F)nc3c([N+](=O)[O-])c(C)c(C)cc32)cc1 [Compound 2.2.58, 1-(4-methoxybenzyl)-5,6-dimethyl-4-nitro-2-(trifluoromethyl)-1H-benzo[d]imidazole] | – | IC50 (DCTPP1; read-out: IC50): 14 nM |
| Cc1cc2c(nc(C)n2Cc2ccc(B(O)O)cc2)c([N+](=O)[O-])c1C [Compound 2.2.60, (4-((2,5,6-trimethyl-4-nitro-1H-benzo[d]imidazol-1-yl)methyl)phenyl)boronic acid] | – | IC50 (DCTPP1; read-out: IC50): 65 nM |
| CC1(C)CC(C)(C)c2c1cc1c(cnn1Cc1ccc(B(O)O)cc1)c2[N+](=O)[O-] [Compound 2.2.64] | ≥ 1000 nM | – |
| COc1ccc(Cn2c(Cc3ccccc3)nc3cccc([N+](=O)[O-])c32)cc1 [Compound 2.3.1, 2-benzyl-1-(4-methoxybenzyl)-7-nitro-1H-benzo[d]imidazole] | ≥ 1000 nM | – |
| COc1ccc(Cn2c(OC)nc3cccc([N+](=O)[O-])c32)cc1 [Compound 2.3.2, 2-methoxy-1-(4-methoxybenzyl)-7-nitro-1H-benzo[d]imidazole] | ≥ 1000 nM | – |
| COc1ccc(Cn2c(-c3ccccc3)nc3cccc([N+](=O)[O-])c32)cc1 [Compound 2.3.3, 1-(4-methoxybenzyl)-7-nitro-2-phenyl-1H-benzo[d]imidazole] | ≥ 1000 nM | – |

Continued, in another order:

| IC50 (DCTPP1; read-out: IC50 (nM), class) | Compound | other results |
| --- | --- | --- |
| 100 to 500 nM | Cc1nc2c([N+](=O)[O-])c(Cl)c(Cl)cc2n1Cc1ccc(Cl)nc1 [Compound 2.2.43, 5,6-dichloro-1-((6-chloropyridin-3-yl)methyl)-2-methyl-4-nitro-1H-benzo[d]imidazole] | – |
| < 100 nM | O=[N+]([O-])c1c(Cl)c(Cl)cc2c1nc(C1CC1)n2Cc1ccc(B(O)O)cc1 [Compound 2.2.45, (4-((5,6-dichloro-2-cyclopropyl-4-nitro-1H-benzo[d]imidazol-1-yl)methyl)phenyl)boronic acid] | IC50 (DCTPP1; read-out: IC50): 27 nM |
| < 100 nM | Cc1nc2c([N+](=O)[O-])c(Cl)c(Cl)cc2n1Cc1ccccc1B(O)O [Compound 2.2.46, (2-((5,6-dichloro-2-methyl-4-nitro-1H-benzo[d]imidazol-1-yl)methyl)phenyl)boronic acid] | – |
| < 100 nM | Cc1nc2c([N+](=O)[O-])c(Cl)c(Cl)cc2n1Cc1cccc(B(O)O)c1 [Compound 2.2.47, (3-((5,6-dichloro-2-methyl-4-nitro-1H-benzo[d]imidazol-1-yl)methyl)phenyl)boronic acid] | – |
| 100 to 500 nM | Cc1nc2c([N+](=O)[O-])c(Cl)c(Cl)cc2n1CCc1ccc(B(O)O)cc1 [Compound 2.2.51, (4-(2-(5,6-dichloro-2-methyl-4-nitro-1H-benzo[d]imidazol-1-yl)ethyl)phenyl)boronic acid] | – |
| ≥ 1000 nM | COc1cc(Cn2c(C)nc3c([N+](=O)[O-])c(C)c(C)cc32)cc(OC)c1OC [Compound 2.2.52, 2,5,6-trimethyl-4-nitro-1-(3,4,5-trimethoxybenzyl)-1H-benzo[d]imidazole] | – |
| < 100 nM | COc1ccc(Cn2c(C)nc3c([N+](=O)[O-])c(C)c(C)cc32)cc1 [Compound 2.2.54, 1-(4-methoxybenzyl)-2,5,6-trimethyl-4-nitro-1H-benzo[d]imidazole] | – |
| < 100 nM | Cc1cc2c(nc(C)n2Cc2ccc(Cl)cc2)c([N+](=O)[O-])c1C [Compound 2.2.55, 1-(4-chlorobenzyl)-2,5,6-trimethyl-4-nitro-1H-benzo[d]imidazole] | – |
| 100 to 500 nM | Cc1cc2c(nc(C)n2Cc2ccc(F)cc2)c([N+](=O)[O-])c1C [Compound 2.2.56, 1-(4-fluorobenzyl)-2,5,6-trimethyl-4-nitro-1H-benzo[d]imidazole] | – |
| 100 to 500 nM | Cc1cc2c(nc(C)n2Cc2ccc(OC(F)(F)F)cc2)c([N+](=O)[O-])c1C [Compound 2.2.57, 2,5,6-trimethyl-4-nitro-1-(4-(trifluoromethoxy)benzyl)-1H-benzo[d]imidazole] | – |
| 100 to 500 nM | Cc1cc2c(nc(C)n2C(C)c2ccccc2)c([N+](=O)[O-])c1C (stereo not shown) [Compound 2.2.59, 2,5,6-trimethyl-4-nitro-1-(1-phenylethyl)-1H-benzo[d]imidazole] | – |
| < 100 nM | Cc1cc2c(nc(C(F)(F)F)n2Cc2ccc(B(O)O)cc2)c([N+](=O)[O-])c1C [Compound 2.2.61, (4-((5,6-dimethyl-4-nitro-2-(trifluoromethyl)-1H-benzo[d]imidazol-1-yl)methyl)phenyl)boronic acid] | – |
| 500 to 1000 nM | Cc1nc2cc(F)c(F)c([N+](=O)[O-])c2n1Cc1ccc(B(O)O)cc1 [Compound 2.3.4, (4-((5,6-difluoro-2-methyl-7-nitro-1H-benzo[d]imidazol-1-yl)methyl)phenyl)boronic acid] | – |
